Source: US8097585B2, “Methods of treating inflammation by administration of heme oxygenase-1 and products of heme degradation” (priority 2002, dated 2012)
Structures can show the parent of a compound that is named as a salt.

Tests used:
[1] = test system: HO-1; experiment: HO activity assay on spleen and heart of treated mice; assay type: in vivo, DBA/2J mice; conditions: 5 mg/kg i.p., one day after treatment
Description: HO activity assay. DBA/2J mice were given either no treatment or CoPPIX or ZnPPIX at a dose of 5 mg/kg, i.p. (n=10 per group). One day after the treatment, the animals were sacrificed, the spleen and the heart were excised, and tissue samples were frozen at −80° C. Frozen tissue samples were homogenized in ice-cold sucrose and Tris-HCl buffer. The microsomal pellet was obtained after centrifugation and re-suspended in MgCl2-potassium phosphate buffer. Sample protein was then incubated with the reaction mixture containing rat liver cytosol, hemin, glucose-6-phosphate, glucose-6-phosphate dehydrogenase and NADPH (Sigma-Aldrich Corporation, St. Louis, Mo.) for 60 minutes at 37° C. The generated bilirubin was measured by reacting with diazotized surfanilic acid to yield azobilirubin using spectrophotometer.

[2] = test system: IL-1β; experiment: Real time RT-PCR of graft muscularis after SITx, IL-1β; assay type: in vivo, LEW rats; conditions: BV 50 mmol/kg i.p. donor and recipient; 4 hours; versus saline-treated graft
Description: (§1) Small Intestinal Transplantation. Orthotopic small intestinal transplantation (SITx) was performed in syngeneic Lewis rats. SITx with caval drainage was performed using a previously described procedure (Murase et al., in Handbook of Animal Models in Transplantation Research, Cramer et al., Eds. CRC Press, Boca Raton, Fla., pp. 203-213 (1994)). […] The graft was perfused via the aortic segment with 5 ml chilled Ringer's lactate solution, and the intestinal lumen was irrigated with 20 ml of cold saline solution containing 0.5% neomycin-sulfate (Sigma, St. Louis, Mo.). […]
(§2) SYBR green real time RT-PCR. The effects of administration of biliverdin on transplant-induced pro-inflammatory and anti-inflammatory gene expression were assessed in muscularis extracts by RT-PCR Biliverdin ([…], i.p.) was administered to both the donor and recipient three hours preoperatively. […] Equal aliquots (5 μg) of total RNA from each sample were quantified by spectrophotometry (wavelength […]) and aliquoted at a concentration of 40 ng/μl. Peak mRNA expression was quantified in duplicate by SYBR Green two-step, real-time RT-PCR. […] Real-time PCR data were plotted as the ΔRn fluorescence signal versus the cycle number. […] Quantification of mRNA expression was normalized to GAPDH and calculated relative to control using the comparative CT method (Schmittgen et al., J. Biochem. Biophys. Methods 46(1-2):69-8, 2000). […]

[3] = test system: IL-10; experiment: Real time RT-PCR of graft muscularis after SITx, IL-10; assay type: in vivo, LEW rats; conditions: BV treatment, 4 hours
Description: as §1, §2

[4] = test system: IL-6; experiment: Serum IL-6 (ELISA), SITx with preserved intestine; assay type: in vivo, LEW rats
Description: Detection of Serum Mediators. Serum samples from the recipients transplanted with preserved intestine were taken at 3 and 12 hours after reperfusion and stored at […] until evaluation. Serum IL-6 was determined using a rat enzyme-linked immunoassay (ELISA) kits as described by the manufacturer (R & D Systems, Inc., Cambridge, Mass.). To monitor the production of nitric oxide, the stable end products of NO metabolism, serum nitrite/nitrate levels, were measured 12 hours after engraftment using a commercially available test kit (Cayman, Ann Arbor, Mich.). In this assay system, nitrate is reduced to nitrite using nitrate reductase, and the nitrite concentration of the sample is subsequently measured using the Griess reaction.

`C=CC1=C(C)c2cc3[n-]c(cc4nc(cc5[n-]c(cc1n2)c(C)c5CCC(=O)[O-])C(CCC(=O)[O-])=C4C)c(C)c3C=C.[Co+2].[H+].[H+]` [CoPP, Cobalt protoporphyrin] was tested, and the HO-1 enzymatic activity [1] was “significantly enhanced”.

For `C=CC1=C(C)/C(=C/C2=NC(=C\c3[nH]c(/C=C4\NC(=O)C(C)=C4C=C)c(C)c3CCC(=O)O)/C(CCC(=O)O)=C2C)NC1=O` [biliverdin, biliverdin dihydrochloride], the “reduction of IL-1b mRNA expression” value [2] was 30%, the “upregulation of IL-10 mRNA caused by transplantation” value [3] was “did not significantly change” and the “serum IL-6 protein concentration” value ([4]; 3 hours after engraftment, untreated transplant 5131.4±3169.1) was 1652 ± 306.9 pg/mL. For the same compound, the “serum IL-6 concentrations” value ([4]; BV treated controls (no transplant)) was “low”.
